Patent US6127380A, “4-aminoalkoxy-1H-benzoimidazoles” (American Home Products Corporation, priority 1998, dated 2000)
Like-named read-outs stand apart in the source and are kept apart here.

Tests used:
[1] = target: T1, dopamine autoreceptor (D2) (Rattus norvegicus, UniProt P61169); test: Affinity for the dopamine autoreceptor, 3H-quinpirole binding in homogenized rat striatal brain tissue (D2 Quin.)
T1 construct: homogenized rat striatal brain tissue; from tissue; host or cells: rat striatum, homogenate
Method: Affinity for the dopamine autoreceptor was established by a modification of the standard experimental test procedure of Seemen and Schaus, European Journal of Pharmacology 203: 105-109, 1991, wherein homogenized rat striatal brain tissue is incubated with ^3 H-quinpirole (Quin.) and various concentrations of test compound, filtered and washed and counted in a Betaplate scintillation counter.

dopamine D-2 receptor = target: T2, dopamine D-2 receptor (Rattus norvegicus, UniProt P61169); test: Affinity for the dopamine D-2 receptor, 3H-spiroperidol binding in homogenized limbic brain tissue (D2 Spiper); conditions: for Ratio: IC50 D2 Spiper / IC50 D2 Quin. (LowAg/HighAg, predicts intrinsic activity)
T2 construct: from tissue; host or cells: limbic brain tissue, homogenate
Method: High affinity for the dopamine D-2 receptor was established by the standard experimental test procedure of Fields, et al., Brain Res., 136, 578 (1977) and Yamamura et al., eds., Neurotransmitter Receptor Binding, Raven Press, N.Y. (1978) wherein homogenized limbic brain tissue is incubated with ^3 H-spiroperidol (Spiper.) and various concentrations of test compound, filtered and washed and shaken with Hydrofluor scintillation cocktail (National Diagnostics) and counted in a Packard 460 CD scintillation counter.

[2] = 3H-quinpirole, homogenized rat striatal brain tissue, read-out: IC50 (nM) D2 Quin.
[3] = 3H-spiroperidol, homogenized limbic brain tissue, read-out: IC50 (nM) D2 Spiper

T2 sequence (P61169 whole entry): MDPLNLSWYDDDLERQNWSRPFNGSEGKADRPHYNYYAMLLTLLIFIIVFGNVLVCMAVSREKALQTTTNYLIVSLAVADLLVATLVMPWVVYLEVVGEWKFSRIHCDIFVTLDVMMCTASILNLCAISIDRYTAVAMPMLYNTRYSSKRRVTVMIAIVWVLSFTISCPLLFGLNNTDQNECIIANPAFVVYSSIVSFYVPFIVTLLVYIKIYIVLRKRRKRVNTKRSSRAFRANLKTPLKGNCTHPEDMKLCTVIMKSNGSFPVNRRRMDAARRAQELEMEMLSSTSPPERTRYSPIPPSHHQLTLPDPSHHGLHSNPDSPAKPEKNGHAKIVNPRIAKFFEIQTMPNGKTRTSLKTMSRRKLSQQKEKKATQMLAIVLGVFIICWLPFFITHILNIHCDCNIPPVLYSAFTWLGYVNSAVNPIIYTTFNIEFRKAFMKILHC
T1 sequence (P61169 whole entry): as above

c1ccc(CNCCOc2cccc3nc[nH]c23)cc1 [Example 1, [2-(1H-Benzoimidazol-4-yloxy)-ethyl]-benzyl-amine]
IC50 [1, 2]: 26.7 nM

Cc1nc2c(OCCNCc3ccccc3)cccc2[nH]1 [Example 2, Benzyl-[2-(2-methyl-1H-benzoimidazol-4-yloxy)-ethyl]-amine]
IC50 (dopamine D-2 receptor; [3]): 339 nM | Ratio (dopamine D-2 receptor): 38.3 | IC50 [1, 2]: 8.85 nM

FC(F)(F)c1nc2c(OCCNCc3ccccc3)cccc2[nH]1 [Example 3, Benzyl-[2-(2-trifluoromethyl-1H-benzoimidazol-4-yloxy)-ethyl]-amine]
IC50 (dopamine D-2 receptor; [3]): 23.7 nM | Ratio (dopamine D-2 receptor): 65.8 | IC50 [1, 2]: 0.36 nM

Cc1ccc(CNCCOc2cccc3[nH]c(C(F)(F)F)nc23)cc1 [Example 4, (4-Methyl-benzyl)-[2-(2-trifluoromethyl-1H-benzoimidazol-4-yloxy)-ethyl]-amine]
IC50 (dopamine D-2 receptor; [3]): 29.9 nM | Ratio (dopamine D-2 receptor): 40.4 | IC50 [1, 2]: 0.74 nM

Cc1ccc(CNCCOc2cccc3[nH]c(Cc4ccccc4)nc23)cc1 [Example 5, [2-(2-Benzyl-1H-benzoimidazol-4-yloxy)-ethyl]-(4-methyl-benzyl)-amine]
IC50 (dopamine D-2 receptor; [3]): 2160 nM | Ratio (dopamine D-2 receptor): 39.4 | IC50 [1, 2]: 54.8 nM

Cc1ccc(CNCCOc2cccc3[nH]c(C(F)(F)C(F)(F)F)nc23)cc1 [Example 6, (4-Methyl-benzyl)-{2-[2-(1,1,2,2,2-pentafluoro-ethyl)-1H-benzoimidazol-4-yloxy]-ethyl}-amine]
IC50 (dopamine D-2 receptor; [3]): 66.5 nM | Ratio (dopamine D-2 receptor): 46.2 | IC50 [1, 2]: 1.44 nM

FC(F)(F)c1nc2c(OCCNCc3cccs3)cccc2[nH]1 [Example 7, Thiophen-2-ylmethyl-[2-(2-trifluoromethyl-1H-benzoimidazol-4-yloxy)-ethyl]-amine]
IC50 (dopamine D-2 receptor; [3]): 37.4 nM | Ratio (dopamine D-2 receptor): 36.3 | IC50 [1, 2]: 1.03 nM

FC(F)(F)c1nc2c(OCCCNCc3ccccc3)cccc2[nH]1 [Example 8, Benzyl-[3-(2-trifluoromethyl-1H-benzoimidazol-4-yloxy)-propyl]-amine]
IC50 (dopamine D-2 receptor; [3]): 1460 nM | Ratio (dopamine D-2 receptor): 16.8 | IC50 [1, 2]: 86.8 nM

FC(F)(F)C(F)(F)c1nc2c(OCCNCc3ccccc3)cccc2[nH]1 [Example 9, Benzyl-{2-[2-(1,1,2,2,2-pentafluoro-ethyl)-1H-benzoimidazol-4-yloxy]-ethyl}-amine]
IC50 (dopamine D-2 receptor; [3]): 41.9 nM | Ratio (dopamine D-2 receptor): 29.7 | IC50 [1, 2]: 1.41 nM

FC(F)(F)c1nc2c(OCCNCc3cccc4ccccc34)cccc2[nH]1 [Example 10, Naphthalen-1-ylmethyl-[2-(2-trifluoromethyl-1H-benzoimidazol-4-yloxy]-ethyl]-amine]
IC50 (dopamine D-2 receptor; [3]): 81.5 nM | Ratio (dopamine D-2 receptor): 94.8 | IC50 [1, 2]: 0.86 nM

c1csc(CNCCOc2cccc3[nH]cnc23)c1 [Example 11, Thiophen-2-ylmethyl-[2-(1H-benzoimidazol-4-yloxy)-ethyl]-amine]
IC50 [1, 2]: 52.8 nM

Cc1ccc(CNCCOc2cccc3[nH]c(C(F)(F)C(F)(F)C(F)(F)F)nc23)cc1 [Example 12, (4-Methyl-benzyl)-{2-[2-(1,1,2,2,3,3,3-heptafluoro-propyl)-1H-benzoimidazol-4-yloxy]-ethyl}-amine]
IC50 (dopamine D-2 receptor): 118 nM | Ratio (dopamine D-2 receptor): 23.0 | IC50 [1]: 5.12 nM

FC(F)(F)c1nc2c(OCCN3CCc4ccccc4C3)cccc2[nH]1 [Example 13]
IC50 (dopamine D-2 receptor; [3]): 314 nM | Ratio (dopamine D-2 receptor): 39.4 | IC50 [1, 2]: 8 nM

FC(F)(F)c1nc2c(OCCNCc3ccccc3)cc(Cl)cc2[nH]1 [Example 14, Benzyl-[2-(6-chloro-2-trifluoromethyl-1H-benzoimidazol-4-yloxy)-ethyl]-amine]
IC50 (dopamine D-2 receptor; [3]): 151 nM | Ratio (dopamine D-2 receptor): 106 | IC50 [1, 2]: 1.42 nM

FC(F)(F)c1nc2c(OCCNCc3ccc(Cl)cc3)cc(Cl)cc2[nH]1 [Example 15, 4-Chloro-benzyl-[2-(6-chloro-2-trifluoromethyl-1H-benzoimidazol-4-yloxy)-ethyl]-amine]
IC50 (dopamine D-2 receptor; [3]): 395 nM | Ratio (dopamine D-2 receptor): 50.8 | IC50 [1, 2]: 7.77 nM

Fc1ccc(CNCCOc2cccc3[nH]c(C(F)(F)F)nc23)cc1 [Example 16, (4-Fluoro-benzyl)-2[2-(2-trifluoromethyl-1H-benzoimidazol-4-yloxy)-ethyl]-amine]
IC50 (dopamine D-2 receptor; [3]): 49 nM | Ratio (dopamine D-2 receptor): 66.2 | IC50 [1, 2]: 0.74 nM

FC(F)(F)c1ccc(CNCCOc2cccc3[nH]c(C(F)(F)F)nc23)cc1 [Example 17, [2-(2-Trifluoromethyl-1H-benzoimidazol-4-yloxy)-ethyl]-(4-trifluoromethyl-benzyl)-amine]
IC50 (dopamine D-2 receptor; [3]): 87 nM | Ratio (dopamine D-2 receptor): 75.0 | IC50 [1, 2]: 1.16 nM

FC(F)(F)c1nc2c(OCCNCCCc3ccccc3)cccc2[nH]1 [Example 18, (3-Phenyl-propyl)-[2-(2-trifluoromethyl-1H-benzoimidazol-4-yloxy)-ethyl]-amine]
IC50 [1, 2]: 0.56 nM
